Assay results: patent US20130096088A1, “Inhibitors of Protein Tyrosine Kinase Activity” (METHYLGENE INC., priority 2011, published 2013)
Where two headings read alike, the source gives them in different places.

Assays:
VEGFR2 (KDR) = target: T1, VEGFR2 (KDR) (Homo sapiens, UniProt P35968); assay: In vitro receptor tyrosine kinase assay (VEGF receptor KDR), DELFIA; assay type: biochemical; conditions: recombinant GST-VEGFR2 806-1356, ATP 0.6 uM; read-out: VEGFR IC50UM
T1 construct: made in house; host or cells: Sf9 cells (Spodoptera frugiperda), baculovirus
Description: In Vitro Receptor Tyrosine Kinase Assay (VEGF Receptor KDR)
This test measures the ability of compounds to inhibit the enzymatic activity of recombinant human VEGF receptor enzymatic activity.
A 1.6-kb cDNA corresponding to the catalytic domain of VEGFR2 (KDR) (Genbank accession number AF035121 amino acid 806 to 1356) is cloned into the Pst I site of the pDEST20 Gateway vector (Invitrogen) for the production of a GST-tagged version of that enzyme. This construct is used to generate recombinant baculovirus using the Bac-to-Bac™ system according to the manufacturer's instructions (Invitrogen).
The GST-VEGFR2806-1356 protein is expressed in Sf9 cells (Spodoptera frugiperda) upon infection with recombinant baculovirus construct. Briefly, Sf9 cells grown in suspension and maintained in serum-free medium (Sf900 II supplemented with gentamycin) at a cell density of about 2×10^6 cells/ml are infected with the above-mentioned viruses at a multiplicity of infection (MOI) of 0.1 during 72 hours at 27° C. with agitation at 120 rpm on a rotary shaker. Infected cells are harvested by centrifugation at 398 g for 15 min. Cell pellets are frozen at −80° C. until purification is performed.
All steps described in cell extraction and purification are performed at 4° C. Frozen Sf9 cell pellets infected with the GST-VEGFR2806-1356 recombinant baculovirus are thawed and gently resuspended in Buffer A (PBS pH 7.3 supplemented with 1 μg/ml pepstatin, 2 μg/ml Aprotinin and leupeptin, 50 μg/ml PMSF, 50 μg/ml TLCK and 10 μM E64 and 0.5 mM DTT) using 3 ml of buffer per gram of cells. Suspension is Dounce homogenized and 1% Triton X-100 is added to the homogenate after which it is centrifuged at 22500 g, 30 min., 4° C. The supernatant (cell extract) is used as starting material for purification of GST-VEGFR2806-1356.
The supernatant is loaded onto a GST-agarose column (Sigma) equilibrated with PBS pH 7.3. Following a four column volume (CV) wash with PBS pH 7.3+1% Triton X-100 and 4 CV wash with buffer B (50 mM Tris pH 8.0, 20% glycerol and 100 mM NaCl), bound proteins are step eluted with 5 CV of buffer B supplemented with 5 mM DTT and 15 mM glutathion. GST-VEGFR2806-1356 enriched fractions from this chromatography step are pooled based on U.V. trace i.e. fractions with high O.D.280. Final GST-VEGFR2806-1356 protein preparations concentrations are about 0.7 mg/ml with purity approximating 70%. Purified GST-VEGFR2806-1356 protein stocks are aliquoted and frozen at −80° C. prior to use in enzymatic assay.
Inhibition of VEGFR/KDR is measured in a DELFIA™ assay (Perkin Elmer). The substrate poly(Glu4,Tyr) is immobilized onto black high-binding polystyrene 96-well plates. The coated plates are washed and stored at 4° C. During the assay, the enzyme is pre-incubated with inhibitor and Mg-ATP on ice in polypropylene 96-well plates for 4 minutes, and then transferred to the coated plates. The subsequent kinase reaction takes place at 30° C. for 10-30 minutes. ATP concentrations in the assay are 0.6 uM for VEGFR/KDR (2× the Km). Enzyme concentration is 5 nM. After incubation, the kinase reactions are quenched with EDTA and the plates are washed. Phosphorylated product is detected by incubation with Europium-labeled anti-phosphotyrosine MoAb. After washing the plates, bound MoAb is detected by time-resolved fluorescence in a Gemini SpectraMax reader (Molecular Devices). Compounds are evaluated over a range of concentrations, and IC50 values (concentration of compounds giving 50% inhibition of enzymatic activity) are determined.

[1] = tested on: laser-induced choroidal neovascularization (CNV); assay: In vivo choroidal neovascularization (CNV) model; set-up: species or system rat; conditions: Brown-Norway rats, injection on Day 3, CNV area on Day 10
Description: In Vivo Choroidal Neovascularization (CNV) Model This test measures the capacity of compounds to inhibit CNV progression. CNV is the main cause of severe vision loss in patients suffering from age-related macular degeneration (AMD). Male Brown-Norway rats (Charles River Japan Co., Ltd.) were used in these studies. Rats were anesthetized by intraperitoneal injection of pentobarbital, and the right pupil was dilated with 0.5% tropicamide and 0.5% phenylephrine hydrochloride. The right eye received 6 laser burns between retinal vessels using a slit lamp delivery system of Green laser Photocoagulator (Nidex Inc., Japan), and microscope slide glass with 10 mg/mL hyaluronic acid (SIGMA) used as a contact lens. The laser power was 200 mW for 0.1 second and spot diameter was 100 μm. At the time of laser burn, bubble production was observed; which is an indication of rupture of Bruch's membrane which is important for CNV generation. After animals were anesthetized, and the right pupil dilated (as mentioned above), the right eye of the animal received the compound or vehicle by an injection (3 μL/eye) at doses of 3 or 10 nmol/eye on Day 3. The compounds were dissolved or suspended in CBS, PBS, or other adequate vehicles before injection. On Day 10, the animals were anesthetized with ether, and high molecular weight fluorescein isothiocyanate (FITC)-dextran (SIGMA, 2×10^6 MW) was injected via a tail vein (20 mg/rat). About 30 min after FITC-dextran injection, animals were euthanized by ether or carbon dioxide, and the eyes were removed and fixed with 10% formaline neutral buffer solution. After over 1 hour of fixation, RPE-choroid-sclera flat mounts were obtained by removing cornea, lens and retina from the eyeballs. The flat mounts were mounted in 50% glycerol on a microscope slide, and the portion burned by laser was photographed using a fluorescence microscope (Nikon Corporation, excitation filter: 465-495 nm, absorption filter: 515-555 nm). The CNV area was obtained by measurement of hyper-fluorescence area observed on the photograph using Scion image. The average CNV area of 6 burns was used as an individual value of CNV area, and the average CNV area of compound treated group was compared with that of the vehicle-treated group.

[2] = tested on: phospho ERK1/2 (T202/Y204) in HUVEC cells; assay: VEGF-dependent Erk phosphorylation; assay type: cell-based; conditions: VEGF165 150 ng/ml, Western blot, read-out: P_ERK IC50UM
Description: VEGF-Dependent Erk Phosphorylation
HUVEC cells are purchased from Cambrex Bio Science Walkersville, Inc and cultured according to the vendor's instructions. The full-length coding sequence of VEGF165 is cloned using the Gateway Cloning Technology (Invitrogen) for baculovirus expression Sf9 cells. VEGF165 is purified from conditioned media using a NaCl gradient elution from a HiTrap heparin column (GE Healthcare Life Sciences) followed by an imidazole gradient elution from a HiTrap chelating column (GE Healthcare Life Sciences), then buffer stored in PBS supplemented with 0.1% BSA and filter sterilized
Cells are seeded at 8000 cells/well of a 96 wells plate and grown for 48 hours. Cells are then grown overnight in serum and growth factor-free medium and exposed for 1.5 h to compounds dilutions. Following a 15 min incubation in medium, VEGF165 (150 ng/ml) cells are lysed in ice-cold lysis buffer (50 mM HEPES, pH 7.4, 150 mM NaCl, 1.5 mM MgCl2, 1% Triton X-100, 10% glycerol) containing 1 mM 4-(2 aminoethyl)benzenesulfonyl fluoride hydrochloride, 200 μM sodium orthovanadate, 1 mM sodium fluoride, 10 μg/mL leupeptin, 10 μg/mL aprotinin, 1 μg/mL pepstatin and 50 μg/mL Na-p-tosyl-L-lysine chloromethyl ketone hydrochloride and processed as Western blots to detect anti-phospho ERK1/2 (T202/Y204) (Cell Signaling Technologies).
lysates samples from single treatment wells are separated on 5-20% SDS-PAGE gels and immunobloting is performed using Immobilon polyvinylidene difluoride membranes (Amersham) according to the manufacturer's instructions. The blots are washed in Tris-buffered saline with 0.1% Tween 20 detergent (TBST) and probed for antibodies against phospho-Thr202/Tyr204-ERK (Cell signaling technologies. Chemiluminescence detection (Amersham, ECL plus) is performed according to the manufacturer's instructions using a Storm densitometer (GE Healthcare; 800 PMT, […]) for imaging and densitometry analysis. Values of over the range of dilution are used to prepare IC50 curves using a 4-parameter fit model. These curves are calculated using GraFit

[3] = Rattus norvegicus, 240 h, dose 3 nmol/eye, read-out: Inhibition of CNV Progression (%)

T1 sequence (P35968 806-1356): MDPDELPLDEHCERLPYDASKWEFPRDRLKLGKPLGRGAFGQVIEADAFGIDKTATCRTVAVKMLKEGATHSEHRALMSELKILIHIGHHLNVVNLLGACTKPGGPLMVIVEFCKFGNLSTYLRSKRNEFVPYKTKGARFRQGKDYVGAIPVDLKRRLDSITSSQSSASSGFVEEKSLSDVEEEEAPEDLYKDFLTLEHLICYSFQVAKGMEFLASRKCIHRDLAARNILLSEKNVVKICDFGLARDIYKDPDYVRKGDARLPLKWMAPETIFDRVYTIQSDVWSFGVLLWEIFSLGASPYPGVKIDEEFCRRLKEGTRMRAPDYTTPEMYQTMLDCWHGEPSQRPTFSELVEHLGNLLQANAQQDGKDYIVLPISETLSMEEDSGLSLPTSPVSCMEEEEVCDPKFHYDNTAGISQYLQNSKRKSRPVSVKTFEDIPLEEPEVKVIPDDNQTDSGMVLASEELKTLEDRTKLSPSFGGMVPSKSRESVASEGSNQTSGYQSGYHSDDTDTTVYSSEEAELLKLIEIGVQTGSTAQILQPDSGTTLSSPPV

Row | IC50 (VEGFR2 (KDR)) [nM] | Structure (SMILES) | inhibition in vivo at 3 nmol/eye [1, 3] [%] | IC50 ([2]; Homo sapiens) [nM] | IC50 [2] [nM] | inhibition in vivo at 10 nmol/eye ([1]; Rattus norvegicus, 240 h, dose 10 nmol/eye, read-out: Inhibition of CNV Progression (%)) [%] | Inhibition of CNV Progression (%) ([1]; dose 3 nmol/eye)
1 | 12 | COCCOCCOCCOCCN1CCC(N(Cc2ccc(-c3cc4nccc(Oc5ccc(NC(=O)NC6CC6)cc5F)c4s3)nc2)C(C)=O)CC1 [Compound 69, N-(1-(2,5,8,11-Tetraoxamidecan-13-yl)piperidin-4-yl)-N-((6-(7-(4-(3-cyclopropylureido)-2-fluorophenoxy)thieno[3,2-b]pyridin-2-yl)pyridin-3-yl)methyl)acetamide] | – | – | 25 | – | –
2 | 6 | COCCOCCOCCOCCN1CCN(Cc2ccc(-c3cc4nccc(Oc5ccc(NC(=O)NC6CC6)cc5F)c4s3)nc2)CC1 [Compound 7, 1-(4-(2-(5-((4-(2,5,8,11-Tetraoxamidecan-13-yl)piperazin-1-yl)methyl)pyridin-2-yl)thieno[3,2-b]pyridin-7-yloxy)-3-fluorophenyl)-3-cyclopropylurea] | 18.1 | 0.2 | – | – | –
3 | 7 | COCCOCCOCCOCCN(C(C)=O)C1CCN(Cc2ccc(-c3cc4nccc(Oc5ccc(NC(=O)NC6CC6)cc5F)c4s3)nc2)CC1 [Compound 65, N-(1-((6-(7-(4-(3-Cyclopropylureido)-2-fluorophenoxy)thieno[3,2-b]pyridin-2-yl)pyridin-3-yl)methyl)piperidin-4-yl)-N-(2,5,8,11-tetraoxamidecan-13-yl)acetamide] | – | – | 2 | – | 32.1

More lines, now with the values behind:

Row | Structure (SMILES) | IC50 (VEGFR2 (KDR)) [nM] | inhibition in vivo at 3 nmol/eye [1, 3] [%] | IC50 ([2]; Homo sapiens) [nM] | IC50 [2] [nM] | inhibition in vivo at 10 nmol/eye ([1]; Rattus norvegicus, 240 h, dose 10 nmol/eye, read-out: Inhibition of CNV Progression (%)) [%] | Inhibition of CNV Progression (%) ([1]; dose 3 nmol/eye)
4 | O=C(Nc1ccc(Oc2ccnc3cc(-c4ccc(CN5CCN(C(=O)COP(=O)(O)O)CC5)cn4)sc23)c(F)c1)NC1CC1 [Compound 6, 2-(4-((6-(7-(4-(3-Cyclopropylureido)-2-fluorophenoxy)thieno[3,2-b]pyridin-2-yl)pyridin-3-yl)methyl)piperazin-1-yl)-2-oxoethyl dihydrogen phosphate] | 9 | 20.9 | 0.4 | – | – | –
5 | COCCOCCOCCOCCOc1ccc(NCc2ccc(-c3cc4nccc(Oc5ccc(NC(=O)NC6CC6)cc5F)c4s3)nc2)cc1 [Compound 39] | 33 | 24.7 | 6 | – | – | –
6 | COCCOCCOCCOCCOC1CN(Cc2ccc(-c3cc4nccc(Oc5ccc(NC(=O)NC6CC6)cc5F)c4s3)nc2)C1 [Compound 60, 1-(4-(2-(5-((3-(2,5,8,11-tetraoxamidecan-13-yloxy)azetidin-1-yl)methyl)pyridin-2-yl)thieno[3,2-b]pyridin-7-yloxy)-3-fluorophenyl)-3-cyclopropylurea] | 10 | – | – | 1.5 | – | –
7 | COCCOCCOCCOC(=O)N1CCN(Cc2ccc(-c3cc4nccc(Oc5ccc(NC(=O)NC6CC6)cc5F)c4s3)nc2)CC1 [Compound 50, 2-(2-(2-Methoxyethoxy)ethoxy)ethyl 4-((6-(7-(4-(3-cyclopropylureido)-2-fluorophenoxy)thieno[3,2-b]pyridin-2-yl)pyridin-3-yl)methyl)piperazine-1-carboxylate] | 8 | – | 0.8 | – | 80.6 | –
8 | COCCOCCOCCOCCOCCC(=O)N1CCN(Cc2ccc(-c3cc4nccc(Oc5ccc(NC(=O)NC6CC6)cc5F)c4s3)nc2)CC1 [Compound 49] | 8 | 20.9 | – | – | – | –
9 | COCCOCCOCCOCCn1cc(-c2cc3nccc(Oc4ccc(NC(=O)NC5CC5)cc4F)c3s2)nn1 [Compound 30, 1-(4-(2-(1-(2,5,8,11-Tetraoxamidecan-13-yl)-1H-1,2,3-triazol-4-yl)thieno[3,2-b]pyridin-7-yloxy)-3-fluorophenyl)-3-cyclopropylurea] | 18 | 26.4 | 70 | – | – | –
